Where a SMILES comes first, the peptide text is derived from it. The star is where a group is joined. Cbz = O=C(OCc1ccccc1)*
Legend:
proteasome = target: T1, proteasome (Rattus norvegicus, UniProt P28075); experiment: Assay for chymotrypsin-like activity of the proteasome in PC12 cell lysates (LLVY-AFC substrate); format: cell-based; details: cells treated overnight with 0.5 μM inhibitor; lysate assayed with 100 μM LLVY-AFC, 37° C., 10 min
T1 construct: endogenous in cells; host or cells: rat PC12 clonal lines (empty vector, or stably expressing human wild-type or A53T alpha-synuclein)
T1 sequence (P28075 60-263): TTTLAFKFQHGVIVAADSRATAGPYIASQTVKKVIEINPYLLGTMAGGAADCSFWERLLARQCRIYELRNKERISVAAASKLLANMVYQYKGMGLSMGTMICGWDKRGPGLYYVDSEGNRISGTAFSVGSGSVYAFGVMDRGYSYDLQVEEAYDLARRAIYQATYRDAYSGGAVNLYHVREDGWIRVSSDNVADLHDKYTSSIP
Experimental: Cells from the different lines were triturated off the dish, centrifuged, and washed in PBS. The resulting pellets were resuspended in 200-500 μl of lysis buffer (10 mM Tris-HCl, pH 7.8, with 1 mM ATP, and 10% glycerol) (Figueiredo-Pereira et al., A new inhibitor of the chymotrypsin-like activity of the multicatalytic proteinase complex (20S proteasome) induces accumulation of ubiquitin-protein conjugates in a neuronal cell. J. Neurochem., 63:1578-1581, 1994). The cells were left for 20 min on ice and then lysed with 30 strokes of a Dounce homogenizer. The lysates were then centrifuged at 10,000×g for 10 min. Fifty micrograms of protein of the resulting supernatants was included in an assay buffer of 100 mM Tris-HCl, pH 8.0, 2 mM CaCl2, 1 mM ATP, and a 100 μM concentration of the fluorogenic substrate LLVY-7-amino-4-trifluoromethyl coumarin (AFC) (Enzyme Systems Products, Livermore, Calif.) in a total final volume of 1 ml. The assay was performed at 37° C. for 10 min (Figueiredo-Pereira et al., 1994, supra). The activity was then measured in a SLM 8000 fluorometer, with assay buffer without lysate as blank. The activity was linear with respect to the amount of protein (in the range of 25-200 μg of protein).

[1] = test system: PC12 cell lines expressing A53T mutant α-synuclein; experiment: Trypan blue assay of cell death in mutant A53T α-synuclein PC12 lines; format: cell-based, rat; details: 50 μM, data not shown
Experimental: The day before the trypan blue assay, subconfluent cultures were rinsed twice with complete medium to remove cells at late stages of degeneration. The following day the cells were triturated off the dish and five drops of the cellular suspension were added in a tube together with five drops of Trypan blue solution (0.4%; Sigma-Aldrich, St. Louis, Mo.). After light mixing, the cells were placed on a glass slide, coverslipped, and visualized under 20× magnification. For each line, three fields of 100 cells each were assessed for the percentage of Trypan blue-positive cells. The results reported are the mean±SEM (n=3).
To test for potential involvement of caspases in cellular degeneration associated with expression of A53T α-synuclein, control, wild-type, and mutant lines were examined for basal caspase-3-like activity, as measured by cleavage of the fluorogenic substrate DEVD-AFC (15 μM; Enzyme Systems Products, Livermore, Calif.). No difference was found in basal activity among cell lines (data not shown). […] It can be concluded that PC12 cell lines expressing A53T mutant α-synuclein display enhanced cellular degeneration that appears nonapoptotic by morphological and biochemical criteria.

CC(C)C[C@@H](C=O)NC(=O)[C@H](CC(C)C)NC(=O)[C@H](CC(C)C)NC(=O)OCc1ccccc1 [MG132] (Cbz-Leu-Leu-Leu-aldehyde)
chymotrypsin-like proteasomal activity remaining in lysates of treated cells (proteasome): < 5%

Boc-aspartate-fluoromethyl ketone
effect on percentage of Trypan blue-positive cells [1]: did not affect

— patent US20040197315A1, “Dopaminergic cell lines stably expressing A53T alpha-synuclein and methods of using same” (priority 2002, published 2004)
